The source made the active and inactive calls. The calls are words filed in the database; no cut-off is given here.
Columns and labels:
SW-620 [1] = test: Cytotoxicity against human SW620 cells after 72 hrs by MTT assay; assay type: ADME, cell-based; conditions: SW-620, 72 h
A-431 = test: Antiproliferative activity against human A431 cells assessed as viable cells at 10 uM; assay type: functional; conditions: read-out: Activity
[2] = target: T1, Epidermal growth factor receptor (Homo sapiens, UniProt P00533); conditions: A-431, at 1 µM
T1 sequence (P00533 whole entry): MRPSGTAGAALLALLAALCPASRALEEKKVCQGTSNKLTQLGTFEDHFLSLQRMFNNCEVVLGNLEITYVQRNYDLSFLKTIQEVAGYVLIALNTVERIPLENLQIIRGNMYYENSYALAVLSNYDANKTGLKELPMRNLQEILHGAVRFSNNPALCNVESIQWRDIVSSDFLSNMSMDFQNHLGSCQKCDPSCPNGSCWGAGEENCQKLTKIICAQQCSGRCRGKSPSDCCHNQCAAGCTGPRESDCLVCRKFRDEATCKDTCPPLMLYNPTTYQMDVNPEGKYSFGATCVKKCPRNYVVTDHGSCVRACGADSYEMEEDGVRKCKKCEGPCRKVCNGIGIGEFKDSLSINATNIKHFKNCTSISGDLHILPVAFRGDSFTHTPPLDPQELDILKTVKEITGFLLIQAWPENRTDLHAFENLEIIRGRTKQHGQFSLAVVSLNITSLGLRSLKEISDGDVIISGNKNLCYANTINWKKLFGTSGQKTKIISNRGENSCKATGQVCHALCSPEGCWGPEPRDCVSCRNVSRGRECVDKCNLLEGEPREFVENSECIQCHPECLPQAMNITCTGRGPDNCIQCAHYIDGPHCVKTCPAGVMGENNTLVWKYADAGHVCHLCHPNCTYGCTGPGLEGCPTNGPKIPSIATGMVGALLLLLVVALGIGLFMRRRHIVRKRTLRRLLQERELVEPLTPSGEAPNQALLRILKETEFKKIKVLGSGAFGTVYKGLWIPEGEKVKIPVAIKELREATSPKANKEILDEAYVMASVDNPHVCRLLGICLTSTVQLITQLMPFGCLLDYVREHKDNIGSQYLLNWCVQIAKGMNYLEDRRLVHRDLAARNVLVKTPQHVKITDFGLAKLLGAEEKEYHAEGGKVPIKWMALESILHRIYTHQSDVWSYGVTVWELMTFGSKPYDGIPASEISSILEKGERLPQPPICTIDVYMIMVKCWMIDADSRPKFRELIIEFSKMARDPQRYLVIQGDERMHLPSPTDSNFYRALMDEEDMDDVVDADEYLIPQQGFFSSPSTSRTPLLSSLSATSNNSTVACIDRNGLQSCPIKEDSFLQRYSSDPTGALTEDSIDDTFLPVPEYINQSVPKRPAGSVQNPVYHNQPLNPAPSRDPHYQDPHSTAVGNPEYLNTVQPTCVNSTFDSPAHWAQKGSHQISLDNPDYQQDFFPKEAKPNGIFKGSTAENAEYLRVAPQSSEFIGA
Description: Inhibition of EGFR autophosphorylation in human A431 cells at 1 uM after 1 hr by Western blot

[3] = target: T1, Epidermal growth factor receptor; conditions: A-431, at 1 µM; remark: listed apart in the source
Description: Inhibition of EGFR autophosphorylation in human A431 cells at 1 uM after 8 hrs by Western blot

[4] = target: T1, Epidermal growth factor receptor; test: Inhibition of human recombinant EGFR expressed in insect cells by time-resolved fluorimetry; assay type: cell-based
[5] = target: T1, Epidermal growth factor receptor; test: Inhibition of EGFR autophosphorylation in human A431 cells after 1 hr by Western blot; assay type: cell-based, A-431
[6] = target: T1, Epidermal growth factor receptor; test: Inhibition of EGFR autophosphorylation in human A431 cells after 8 hrs by Western blot; assay type: cell-based, A-431
NCI-H1975 [7] = test: Antiproliferative activity against human NCI-H1975 cells after 72 hrs by MTT assay; assay type: functional, cell-based; conditions: NCI-H1975, 72 h
NCI-H1975 [8] = test: Induction of apoptosis in human NCI-H1975 cells assessed as activation of caspase-3 at 5 uM after 2 days by Western blot; assay type: functional, cell-based
[9] = target: Receptor tyrosine-protein kinase erbB-2 (Homo sapiens) (UniProt P04626); test: Inhibition of ERBB2 autophosphorylation in human NCI-H1975 cells by Western blot; assay type: cell-based
Sequence of Receptor tyrosine-protein kinase erbB-2 (Homo sapiens) (P04626 whole entry): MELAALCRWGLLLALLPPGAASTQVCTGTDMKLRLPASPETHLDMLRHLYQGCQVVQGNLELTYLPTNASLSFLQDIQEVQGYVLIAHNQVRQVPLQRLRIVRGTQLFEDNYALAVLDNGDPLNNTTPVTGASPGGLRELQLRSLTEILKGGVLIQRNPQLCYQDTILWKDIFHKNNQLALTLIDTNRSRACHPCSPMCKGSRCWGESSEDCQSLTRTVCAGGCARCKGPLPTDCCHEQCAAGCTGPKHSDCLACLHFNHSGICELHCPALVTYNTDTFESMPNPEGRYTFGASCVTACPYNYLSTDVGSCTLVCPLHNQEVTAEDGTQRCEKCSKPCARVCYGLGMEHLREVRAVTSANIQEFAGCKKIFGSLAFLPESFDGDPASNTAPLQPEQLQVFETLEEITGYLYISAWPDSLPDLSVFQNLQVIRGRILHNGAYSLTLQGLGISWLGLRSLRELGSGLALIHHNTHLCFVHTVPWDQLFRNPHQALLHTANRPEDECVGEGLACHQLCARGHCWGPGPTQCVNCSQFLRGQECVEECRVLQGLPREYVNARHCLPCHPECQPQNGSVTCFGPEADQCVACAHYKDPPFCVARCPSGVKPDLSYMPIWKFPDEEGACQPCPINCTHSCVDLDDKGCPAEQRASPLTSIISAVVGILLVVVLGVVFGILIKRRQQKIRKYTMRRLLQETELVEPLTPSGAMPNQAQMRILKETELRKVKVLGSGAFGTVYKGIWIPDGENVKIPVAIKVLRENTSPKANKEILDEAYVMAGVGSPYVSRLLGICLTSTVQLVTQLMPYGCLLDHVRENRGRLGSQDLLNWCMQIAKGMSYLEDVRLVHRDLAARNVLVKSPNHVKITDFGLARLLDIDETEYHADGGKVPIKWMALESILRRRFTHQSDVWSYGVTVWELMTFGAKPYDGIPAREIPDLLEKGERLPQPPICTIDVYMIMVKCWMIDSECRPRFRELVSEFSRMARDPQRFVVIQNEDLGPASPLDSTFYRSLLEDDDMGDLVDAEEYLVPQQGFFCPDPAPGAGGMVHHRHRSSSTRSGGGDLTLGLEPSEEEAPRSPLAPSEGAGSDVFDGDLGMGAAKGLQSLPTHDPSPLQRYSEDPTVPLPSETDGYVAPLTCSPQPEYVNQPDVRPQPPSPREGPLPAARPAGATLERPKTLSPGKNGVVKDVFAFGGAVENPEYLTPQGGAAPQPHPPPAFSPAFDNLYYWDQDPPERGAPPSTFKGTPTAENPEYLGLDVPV

NCI-H1975 [10] = test: Cytotoxicity against human NCI-H1975 cells assessed as cell death at 5 uM after 72 hrs by propidium iodide/Hoechst staining based fluorescence microscopy; assay type: functional
SW-620 [11] = test: Cytotoxicity against human SW620 cells at 10 uM after 72 hrs by MTT assay; assay type: cell-based; conditions: sw-620, 72 h

SMILES | inhibition [2] | inhibition [3] | IC50 [4] | other results
C=CC(=O)Nc1ccc2ncnc(Nc3cccc(Br)c3)c2c1 | – | – | – | IC50 (SW-620 [1]): 8230 nM
CCOC(=O)[C@@H]1O[C@H]1C(=O)Nc1ccc2ccccc2c1 | 0% | 0% | – | viability at 10 µM (A-431): < 10%
Nc1ccc2ncnc(Nc3cccc(Br)c3)c2c1 | 98.5% | 0% | – | –
O=C(CNC(=O)Oc1ccccc1)Nc1ccc2ncnc(Nc3cccc(Br)c3)c2c1 | 95.2% | 79.9% | 0.37 nM | –
O=C(COc1ccc(F)cc1)Nc1ccc2ncnc(Nc3cccc(Br)c3)c2c1 | 97.4% | 77.6% | 8.43 nM | IC50 [5]: 76 nM; IC50 [6]: 291 nM; IC50 (NCI-H1975 [7]): 7820 nM
COc1cc2ncnc(Nc3ccc(F)c(Cl)c3)c2cc1OCCCN1CCOCC1 | – | – | – | Activity (NCI-H1975 [8]): Active
O=C(COc1ccccc1)Nc1ccc2ccccc2c1 | 0% | 0% | – | viability at 10 µM (A-431): < 10%
O=C(Nc1ccc2ncnc(Nc3cccc(Br)c3)c2c1)[C@@H]1O[C@H]1CN1CCCCC1 | 99.4% | 96.3% | 1.24 nM | IC50 [5]: 7 nM; IC50 [6]: 44 nM; IC50 (NCI-H1975 [7]): 1720 nM; inhibition [9]: Dose-dependent effect; Activity (NCI-H1975 [10]): 25%; IC50 (SW-620 [1]): > 10000 nM; Activity (SW-620 [11]): < 50%
O=C(Cn1sc2ccccc2c1=O)Nc1ccc2ncnc(Nc3cccc(Br)c3)c2c1 | 69% | 30.7% | 0.85 nM | –
CC(C)c1nsc(C(=O)Nc2ccc3ncnc(Nc4cccc(Br)c4)c3c2)n1 | 82.3% | 66.9% | 129 nM | –

— ChEMBL document CHEMBL1157583, “Novel irreversible epidermal growth factor receptor inhibitors by chemical modulation of the cysteine-trap portion” (J Med Chem, 2010)
